ChEMBL document CHEMBL1201862, “PubChem BioAssay data set” (2004)
Active and inactive are the calls of the source.

Tests used:
[1] = Fluorescence Cell-Based Dose Response to Identify Inhibitors of Thrombin Receptor-Activating Peptide SFLLRN-Mediated P-Selectin Induction on Platelets. [Related pubchem assays: 1663 (Primary HTS), 1889 (retest at dose ), 1891 (counterscreen), 1678 (Project Summary)]; format: functional
[2] = Luminescence Cell-Based Dose Confirmation HTS to Identify Inhibitors of Platelet Dense Granule Release. [Related pubchem assays: 1663 (Primary HTS), 1678 (Summary of Project)]; format: functional
[3] = molecular target: Luciferin 4-monooxygenase (Photinus pyralis, UniProt P08659); experiment: inhibition of purified Photinus pyralis luciferase – biochemical, luminescence, dose response (AID 1891)
Bcl-2-related protein A1 [4] = molecular target: T1, Bcl-2-related protein A1 (Mus musculus, UniProt Q07440); experiment: Bfl-1 binding inhibitors, SAR follow-up, biochemical, fluorescence polarization (AID 1070)
T1 sequence (Q07440 whole entry): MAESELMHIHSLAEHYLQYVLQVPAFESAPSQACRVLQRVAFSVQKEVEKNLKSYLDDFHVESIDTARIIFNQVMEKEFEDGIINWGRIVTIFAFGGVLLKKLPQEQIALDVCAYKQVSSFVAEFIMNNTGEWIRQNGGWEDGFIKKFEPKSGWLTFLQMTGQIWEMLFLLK

Bcl-2-related protein A1 [5] = molecular target: T1, Bcl-2-related protein A1; experiment: small-molecule antagonists of Bfl-1/BH3 interaction – biochemical, TR-FRET, mouse Bfl-1, confirmation (AID 621);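 note: TR-FRET binding of GST-Bfl-1 to FITC-labelled Bid peptide via terbium antibody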
[6] = molecular target: Induced myeloid leukemia cell differentiation protein Mcl-1 (Homo sapiens, UniProt Q07820); format: functional
Induced myeloid leukemia cell differentiation protein Mcl-1, sequence (Q07820 whole entry): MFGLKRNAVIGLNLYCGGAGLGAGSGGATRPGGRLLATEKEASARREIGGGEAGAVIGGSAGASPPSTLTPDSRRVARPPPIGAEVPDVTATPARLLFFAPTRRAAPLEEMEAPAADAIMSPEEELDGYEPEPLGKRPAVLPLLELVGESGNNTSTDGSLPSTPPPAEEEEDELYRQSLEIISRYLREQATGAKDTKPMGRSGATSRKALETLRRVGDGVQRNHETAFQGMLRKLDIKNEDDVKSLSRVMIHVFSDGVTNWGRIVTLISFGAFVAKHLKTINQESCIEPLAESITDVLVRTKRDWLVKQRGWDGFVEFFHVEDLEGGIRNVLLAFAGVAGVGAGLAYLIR

Estrogen receptor = molecular target: T2, Estrogen receptor (Homo sapiens, UniProt P03372);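 note: potency for inhibiting coactivator peptide recruitment to the receptor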
T2 sequence (P03372 whole entry): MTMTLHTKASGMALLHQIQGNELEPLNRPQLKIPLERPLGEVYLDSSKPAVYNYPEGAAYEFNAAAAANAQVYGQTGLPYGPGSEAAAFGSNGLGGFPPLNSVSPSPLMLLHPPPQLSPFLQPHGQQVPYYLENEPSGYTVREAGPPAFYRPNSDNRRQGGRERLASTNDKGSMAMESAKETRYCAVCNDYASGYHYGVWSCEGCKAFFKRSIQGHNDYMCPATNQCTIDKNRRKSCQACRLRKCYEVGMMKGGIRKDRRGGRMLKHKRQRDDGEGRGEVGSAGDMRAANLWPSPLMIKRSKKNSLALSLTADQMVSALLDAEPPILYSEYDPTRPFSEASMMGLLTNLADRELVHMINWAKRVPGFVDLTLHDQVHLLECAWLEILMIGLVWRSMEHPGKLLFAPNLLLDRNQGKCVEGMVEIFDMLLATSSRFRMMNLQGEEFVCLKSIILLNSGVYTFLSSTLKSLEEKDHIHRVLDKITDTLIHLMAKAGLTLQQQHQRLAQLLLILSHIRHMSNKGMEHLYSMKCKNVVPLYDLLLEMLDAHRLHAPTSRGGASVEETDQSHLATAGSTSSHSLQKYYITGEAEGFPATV

Genome polyprotein = Genome polyprotein (Hepatitis C virus, UniProt Q2Q167); experiment: disruption of hepatitis C core self-association – biochemical, TR-FRET, dose response (AID 2159); parameters: species or system Hepacivirus hominis;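 note: blocks dimerization of HCV core protein measured by TR-FRET between tagged core106 pairs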
Genome polyprotein, sequence (Q2Q167 whole entry): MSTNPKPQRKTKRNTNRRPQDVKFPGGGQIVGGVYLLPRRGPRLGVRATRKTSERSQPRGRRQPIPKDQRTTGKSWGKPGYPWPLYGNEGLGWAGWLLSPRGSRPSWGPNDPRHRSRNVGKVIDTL

[7] = molecular target: T3, Aryl hydrocarbon receptor (Homo sapiens, UniProt P35869); experiment: Luminescence-based cell-based high throughput dose response assay for activators of the Aryl Hydrocarbon Receptor (AHR). [Related pubchem assays: 2796 (Primary screen (AHR activators in singlicate)), 2845 (Confirmation screen (AHR activators in triplicate)), 434939 (Counterscreen (PXR activators in triplicate)), 2804 (Summary (AHR activators))]; format: ADME
T3 sequence (P35869 whole entry): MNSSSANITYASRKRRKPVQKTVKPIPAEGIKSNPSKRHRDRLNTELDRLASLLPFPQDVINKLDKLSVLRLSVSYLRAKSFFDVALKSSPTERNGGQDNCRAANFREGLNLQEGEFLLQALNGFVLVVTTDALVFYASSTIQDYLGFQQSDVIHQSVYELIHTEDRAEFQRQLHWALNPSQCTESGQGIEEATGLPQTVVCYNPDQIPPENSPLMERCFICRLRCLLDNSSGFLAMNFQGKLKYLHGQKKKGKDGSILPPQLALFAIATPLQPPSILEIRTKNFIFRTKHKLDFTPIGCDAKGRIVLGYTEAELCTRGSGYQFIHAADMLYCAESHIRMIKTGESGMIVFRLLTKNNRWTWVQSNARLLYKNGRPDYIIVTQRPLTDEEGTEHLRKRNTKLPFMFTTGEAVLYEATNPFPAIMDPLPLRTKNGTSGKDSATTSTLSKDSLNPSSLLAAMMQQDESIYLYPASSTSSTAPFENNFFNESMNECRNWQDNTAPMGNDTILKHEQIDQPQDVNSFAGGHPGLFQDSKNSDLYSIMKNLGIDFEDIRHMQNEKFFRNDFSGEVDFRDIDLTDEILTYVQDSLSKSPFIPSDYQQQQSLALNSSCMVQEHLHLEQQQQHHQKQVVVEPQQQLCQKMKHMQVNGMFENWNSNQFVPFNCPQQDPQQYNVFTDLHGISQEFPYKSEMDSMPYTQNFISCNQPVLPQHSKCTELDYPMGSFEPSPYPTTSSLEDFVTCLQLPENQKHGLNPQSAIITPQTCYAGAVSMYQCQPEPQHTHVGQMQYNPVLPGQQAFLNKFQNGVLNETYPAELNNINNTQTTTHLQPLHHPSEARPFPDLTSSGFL

[8] = molecular target: Glucose-6-phosphate 1-dehydrogenase (Homo sapiens, UniProt P11413); experiment: inhibition of Homo sapiens G6PD, dose series – biochemical, fluorescence, selectivity assay for P. falciparum G6PD inhibitor project, dose response (AID 504792); format: functional
Ephrin type-A receptor 4 = Ephrin type-A receptor 4 (Mus musculus, UniProt Q03137); experiment: EphA4 ligand-binding antagonists – biochemical, colorimetric, mouse EphA4, primary screen (AID 689); format: functional
Large T antigen = Large T antigen (Simian virus 40, UniProt P03070); format: functional, Betapolyomavirus macacae;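 note: Confirmatory-stage PubChem screen for compounds that inhibit SV40 T antigen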
Leucine aminopeptidase = molecular target: T4, Leucine aminopeptidase (Plasmodium falciparum 3D7, UniProt Q8IL11); experiment: P. falciparum M17LAP inhibitors, primary screen, biochemical, fluorogenic H-Leu-NHMec substrate, 1536-well (AID 1619); format: functional
T4 sequence (Q8IL11 whole entry): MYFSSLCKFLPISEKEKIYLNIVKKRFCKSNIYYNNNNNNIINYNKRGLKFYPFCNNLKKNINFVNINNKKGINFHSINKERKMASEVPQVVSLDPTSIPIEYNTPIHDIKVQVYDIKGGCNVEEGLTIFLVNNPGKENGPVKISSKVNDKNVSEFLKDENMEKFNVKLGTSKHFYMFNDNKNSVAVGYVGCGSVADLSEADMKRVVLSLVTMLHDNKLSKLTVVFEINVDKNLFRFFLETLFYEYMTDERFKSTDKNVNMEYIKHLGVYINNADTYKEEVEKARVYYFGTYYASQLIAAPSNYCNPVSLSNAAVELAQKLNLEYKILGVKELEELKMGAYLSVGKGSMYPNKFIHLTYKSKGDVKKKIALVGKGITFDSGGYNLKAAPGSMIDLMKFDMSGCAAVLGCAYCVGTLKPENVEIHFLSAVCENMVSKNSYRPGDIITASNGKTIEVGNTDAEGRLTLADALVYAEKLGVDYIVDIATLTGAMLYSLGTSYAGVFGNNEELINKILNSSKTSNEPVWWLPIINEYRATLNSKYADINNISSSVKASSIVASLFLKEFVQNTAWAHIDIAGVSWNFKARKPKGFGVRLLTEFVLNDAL

Aspartyl aminopeptidase = molecular target: T5, Aspartyl aminopeptidase (Plasmodium falciparum 3D7, UniProt Q8I2J3); experiment: Counterscreen for inhibitors of M1 and M17 aminopeptidases: QFRET-based biochemical high throughput dose response assay for inhibitors of the Plasmodium falciparum M18 Aspartyl Aminopeptidase (PFM18AAP). [Related PubChem assays: 1619 (Screening assay (M17LAP inhibitors).), 1445 (Screening assay (M1AAP inhibitors).)]
T5 sequence (Q8I2J3 whole entry): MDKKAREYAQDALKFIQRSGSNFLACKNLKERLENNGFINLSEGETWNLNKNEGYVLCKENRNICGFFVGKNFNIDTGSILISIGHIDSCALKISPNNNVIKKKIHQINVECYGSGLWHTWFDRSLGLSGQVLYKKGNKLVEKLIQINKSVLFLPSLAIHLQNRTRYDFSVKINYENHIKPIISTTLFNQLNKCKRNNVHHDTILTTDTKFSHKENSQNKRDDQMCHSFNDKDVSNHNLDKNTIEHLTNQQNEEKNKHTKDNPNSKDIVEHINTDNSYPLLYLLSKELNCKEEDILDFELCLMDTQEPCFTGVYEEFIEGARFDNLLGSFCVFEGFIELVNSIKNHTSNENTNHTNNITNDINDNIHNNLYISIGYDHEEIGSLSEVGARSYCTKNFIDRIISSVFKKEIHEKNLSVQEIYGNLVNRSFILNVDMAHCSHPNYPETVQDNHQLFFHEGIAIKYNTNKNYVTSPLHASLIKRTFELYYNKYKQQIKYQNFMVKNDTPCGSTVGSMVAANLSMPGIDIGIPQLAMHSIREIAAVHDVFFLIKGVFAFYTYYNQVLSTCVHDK

Procathepsin L = Procathepsin L (Homo sapiens, UniProt P07711); experiment: CTSL1 protease inhibition – biochemical, QFRET, 1536-well, counter-screen for M1/M17 aminopeptidase inhibitor project, dose response (AID 2214)
[9] = molecular target: Peroxisome proliferator-activated receptor gamma/Nuclear receptor corepressor 2 (Homo sapiens, UniProt P37231+Q9Y618); experiment: Counterscreen for NR2E3 inverse agonists: TR-FRET-based biochemical high throughput dose response assay to identify inverse agonists of the interaction between peroxisome proliferator-activated receptor gamma (PPARg) and nuclear receptor co-repressor 2 (NCOR2).; format: functional
Peroxisome proliferator-activated receptor gamma/Nuclear receptor corepressor 2, sequence (P37231 whole entry): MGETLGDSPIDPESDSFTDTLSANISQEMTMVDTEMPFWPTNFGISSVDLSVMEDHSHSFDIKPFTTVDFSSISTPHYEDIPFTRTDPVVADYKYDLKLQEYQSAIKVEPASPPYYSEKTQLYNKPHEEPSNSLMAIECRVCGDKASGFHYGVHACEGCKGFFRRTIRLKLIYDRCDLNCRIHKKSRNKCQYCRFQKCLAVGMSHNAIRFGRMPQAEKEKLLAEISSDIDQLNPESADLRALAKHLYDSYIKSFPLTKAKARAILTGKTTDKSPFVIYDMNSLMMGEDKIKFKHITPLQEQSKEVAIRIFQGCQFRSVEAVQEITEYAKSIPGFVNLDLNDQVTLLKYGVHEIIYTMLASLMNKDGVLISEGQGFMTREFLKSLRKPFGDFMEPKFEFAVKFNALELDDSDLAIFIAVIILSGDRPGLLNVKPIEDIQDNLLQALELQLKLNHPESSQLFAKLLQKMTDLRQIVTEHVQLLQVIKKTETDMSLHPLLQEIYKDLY
Peroxisome proliferator-activated receptor gamma/Nuclear receptor corepressor 2, sequence (Q9Y618 whole entry): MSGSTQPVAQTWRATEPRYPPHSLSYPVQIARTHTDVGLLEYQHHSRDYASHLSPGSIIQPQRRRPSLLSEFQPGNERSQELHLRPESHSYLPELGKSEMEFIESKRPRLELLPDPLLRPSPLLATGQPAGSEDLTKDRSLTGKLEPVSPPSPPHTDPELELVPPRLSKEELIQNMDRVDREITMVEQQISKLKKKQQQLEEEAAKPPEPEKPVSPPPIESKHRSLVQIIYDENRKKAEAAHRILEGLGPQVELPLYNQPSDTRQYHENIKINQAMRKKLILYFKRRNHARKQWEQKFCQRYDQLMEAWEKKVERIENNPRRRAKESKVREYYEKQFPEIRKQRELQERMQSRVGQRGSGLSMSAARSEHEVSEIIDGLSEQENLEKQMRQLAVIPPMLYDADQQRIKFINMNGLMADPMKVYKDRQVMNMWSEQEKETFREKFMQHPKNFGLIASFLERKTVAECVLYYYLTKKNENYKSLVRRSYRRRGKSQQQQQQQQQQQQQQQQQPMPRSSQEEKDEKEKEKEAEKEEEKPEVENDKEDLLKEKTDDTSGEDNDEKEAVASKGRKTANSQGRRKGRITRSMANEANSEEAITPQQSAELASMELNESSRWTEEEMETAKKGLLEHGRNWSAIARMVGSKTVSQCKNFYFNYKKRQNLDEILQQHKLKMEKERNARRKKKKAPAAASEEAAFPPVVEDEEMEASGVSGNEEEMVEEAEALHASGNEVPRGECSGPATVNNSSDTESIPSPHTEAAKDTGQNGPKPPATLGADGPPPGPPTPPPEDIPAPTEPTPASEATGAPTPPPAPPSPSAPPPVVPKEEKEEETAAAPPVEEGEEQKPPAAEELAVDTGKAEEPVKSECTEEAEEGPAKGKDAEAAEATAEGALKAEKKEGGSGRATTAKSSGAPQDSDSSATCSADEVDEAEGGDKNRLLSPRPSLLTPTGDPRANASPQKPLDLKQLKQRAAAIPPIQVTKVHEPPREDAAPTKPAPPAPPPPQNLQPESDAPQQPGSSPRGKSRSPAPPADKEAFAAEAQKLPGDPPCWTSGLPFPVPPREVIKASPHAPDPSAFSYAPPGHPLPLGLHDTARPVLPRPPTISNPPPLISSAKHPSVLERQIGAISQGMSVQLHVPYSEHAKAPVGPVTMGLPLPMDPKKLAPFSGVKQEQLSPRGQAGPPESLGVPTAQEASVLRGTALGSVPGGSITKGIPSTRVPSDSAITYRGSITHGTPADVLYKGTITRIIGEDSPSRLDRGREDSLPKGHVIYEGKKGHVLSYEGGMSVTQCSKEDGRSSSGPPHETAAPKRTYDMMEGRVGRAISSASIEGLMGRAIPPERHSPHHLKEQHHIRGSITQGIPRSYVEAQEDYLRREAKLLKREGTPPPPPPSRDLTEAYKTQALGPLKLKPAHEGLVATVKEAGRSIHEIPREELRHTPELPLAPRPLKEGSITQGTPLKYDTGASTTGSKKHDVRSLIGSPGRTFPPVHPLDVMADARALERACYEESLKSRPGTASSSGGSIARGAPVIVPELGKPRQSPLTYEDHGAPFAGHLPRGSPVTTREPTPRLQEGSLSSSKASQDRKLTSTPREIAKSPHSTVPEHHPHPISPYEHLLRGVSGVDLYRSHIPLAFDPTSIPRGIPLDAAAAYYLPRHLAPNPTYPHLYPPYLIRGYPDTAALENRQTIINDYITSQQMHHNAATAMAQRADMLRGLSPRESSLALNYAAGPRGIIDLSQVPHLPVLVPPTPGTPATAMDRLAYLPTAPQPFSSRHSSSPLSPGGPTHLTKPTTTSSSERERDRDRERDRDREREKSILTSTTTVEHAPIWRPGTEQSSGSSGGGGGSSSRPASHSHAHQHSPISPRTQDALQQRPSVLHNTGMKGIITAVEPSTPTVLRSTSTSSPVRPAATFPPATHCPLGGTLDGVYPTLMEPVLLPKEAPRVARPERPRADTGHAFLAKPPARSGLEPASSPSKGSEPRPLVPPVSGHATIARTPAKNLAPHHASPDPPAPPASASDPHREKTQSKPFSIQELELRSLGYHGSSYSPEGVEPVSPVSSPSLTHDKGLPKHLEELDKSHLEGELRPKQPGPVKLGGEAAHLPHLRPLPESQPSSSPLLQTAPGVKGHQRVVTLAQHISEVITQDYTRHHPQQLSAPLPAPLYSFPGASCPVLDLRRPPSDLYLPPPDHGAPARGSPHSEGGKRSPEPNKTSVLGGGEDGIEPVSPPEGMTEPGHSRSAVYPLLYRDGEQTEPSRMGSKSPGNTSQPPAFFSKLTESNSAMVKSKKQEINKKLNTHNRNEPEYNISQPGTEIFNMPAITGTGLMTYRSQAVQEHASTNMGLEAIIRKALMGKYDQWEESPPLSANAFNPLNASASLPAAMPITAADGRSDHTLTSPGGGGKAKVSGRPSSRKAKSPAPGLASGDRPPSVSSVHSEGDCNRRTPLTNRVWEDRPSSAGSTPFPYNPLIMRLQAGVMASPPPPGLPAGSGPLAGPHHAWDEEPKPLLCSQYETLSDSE

[10] = molecular target: Photoreceptor-specific nuclear receptor (Homo sapiens, UniProt Q9Y5X4); experiment: ligands suppressing NR2E3 nuclear receptor activity – biochemical, TR-FRET, dose response (AID 463256); format: functional
Photoreceptor-specific nuclear receptor, sequence (Q9Y5X4 whole entry): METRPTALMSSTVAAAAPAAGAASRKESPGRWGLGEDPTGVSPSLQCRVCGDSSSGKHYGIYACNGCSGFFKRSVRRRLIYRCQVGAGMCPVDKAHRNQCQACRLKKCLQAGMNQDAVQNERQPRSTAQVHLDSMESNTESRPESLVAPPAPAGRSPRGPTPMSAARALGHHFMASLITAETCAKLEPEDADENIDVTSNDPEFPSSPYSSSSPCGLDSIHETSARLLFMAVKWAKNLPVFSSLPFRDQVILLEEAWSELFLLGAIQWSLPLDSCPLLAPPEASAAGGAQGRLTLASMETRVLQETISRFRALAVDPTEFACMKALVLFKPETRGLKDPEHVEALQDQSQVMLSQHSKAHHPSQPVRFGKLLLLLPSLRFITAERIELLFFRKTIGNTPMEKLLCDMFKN

Galanin receptor type 2 = Galanin receptor type 2 (Homo sapiens, UniProt O43603); experiment: Dose Response cell-based high-throughput screening assay to identify antagonists of galanin receptor 2 (GALR2). [Related pubchem assays: 828, 866 ]; format: functional
Galanin receptor type 2, sequence (O43603 whole entry): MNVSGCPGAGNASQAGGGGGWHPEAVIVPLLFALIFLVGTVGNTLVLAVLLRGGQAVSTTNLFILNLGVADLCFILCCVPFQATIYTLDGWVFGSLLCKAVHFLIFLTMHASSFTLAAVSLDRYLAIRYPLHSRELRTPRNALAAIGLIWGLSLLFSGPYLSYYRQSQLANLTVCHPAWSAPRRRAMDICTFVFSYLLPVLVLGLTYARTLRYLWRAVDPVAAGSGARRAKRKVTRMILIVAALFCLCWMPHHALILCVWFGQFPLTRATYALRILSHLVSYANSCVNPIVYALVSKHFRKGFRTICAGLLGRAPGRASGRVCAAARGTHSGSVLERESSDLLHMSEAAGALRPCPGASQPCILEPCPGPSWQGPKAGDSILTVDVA

[11] = M. tuberculosis growth inhibition, HTS (AID 449762); format: functional
[12] = molecular target: FAD-linked sulfhydryl oxidase ALR (Homo sapiens, UniProt P55789); experiment: ALR-catalysed DTT oxidation blockers – biochemical, H2O2 detection, luminescence, cherry-pick, dose response (AID 493248)
FAD-linked sulfhydryl oxidase ALR, sequence (P55789 whole entry): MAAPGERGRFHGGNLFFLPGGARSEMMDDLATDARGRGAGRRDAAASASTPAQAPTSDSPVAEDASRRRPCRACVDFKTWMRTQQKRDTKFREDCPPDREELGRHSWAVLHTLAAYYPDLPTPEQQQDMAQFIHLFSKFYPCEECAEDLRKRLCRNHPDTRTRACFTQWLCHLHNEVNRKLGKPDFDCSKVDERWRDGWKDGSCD

Cytochrome P450 2C19 = Cytochrome P450 2C19 (Homo sapiens, UniProt P33261); experiment: qHTS Assay for Inhibitors and Substrates of Cytochrome P450 2C19. [Related pubchem assays: 410 ]; format: ADME; conditions: read-out: Potency
Cytochrome P450 2C19, sequence (P33261 whole entry): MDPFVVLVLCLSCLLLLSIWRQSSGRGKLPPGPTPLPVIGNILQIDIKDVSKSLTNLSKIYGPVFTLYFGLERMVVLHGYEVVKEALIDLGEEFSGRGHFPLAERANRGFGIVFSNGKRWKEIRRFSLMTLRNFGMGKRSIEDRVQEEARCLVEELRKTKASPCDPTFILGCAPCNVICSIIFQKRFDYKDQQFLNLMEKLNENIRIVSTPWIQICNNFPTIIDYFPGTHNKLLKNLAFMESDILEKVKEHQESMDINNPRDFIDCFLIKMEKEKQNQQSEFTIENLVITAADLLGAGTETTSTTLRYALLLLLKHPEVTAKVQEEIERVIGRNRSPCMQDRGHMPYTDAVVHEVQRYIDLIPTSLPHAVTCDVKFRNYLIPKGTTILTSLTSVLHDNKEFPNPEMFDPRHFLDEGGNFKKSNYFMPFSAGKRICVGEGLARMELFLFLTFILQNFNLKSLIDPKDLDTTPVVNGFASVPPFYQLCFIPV

cells [13] = format: functional, cell-based
INS1 = experiment: INS-1E survival protection against cytokine death – cell-based, luminescence, retest, dose response (AID 449756); format: functional; conditions: Rattus norvegicus;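 note: cell death triggered by IL-1 beta plus TNF-alpha plus IFN-gamma mixture; protective hits raise ATP signal compared with cytokine alone wells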
[14] = NIH3T3 cell viability loss – ATP luminescence, mouse fibroblasts, counter-screen, dose response (AID 2010); format: functional, cell-based;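 note: cells exposed to compound for about 90 hours before reading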
[15] = Trypanosoma cruzi growth suppression in host cells – NIH3T3 host cells, beta-gal luminescence, confirmation (AID 2044); format: functional, cell-based;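 note: intracellular parasites grown in NIH/3T3 mouse fibroblasts as host cells; luminescent beta-galactosidase reporter signal from transgenic T. cruzi replicating inside host cells; inhibitors lower the luminescence signal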
Streptococcus = experiment: GAS UMAA2166 growth inhibition – luminescence, BacTiterGlo, counter-screen for streptokinase expression inhibitor project, dose response (AID 1915); format: functional, organism-based;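 note: potency for reduction of bacterial viability or growth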
[16] = molecular target: Voltage-gated inwardly rectifying potassium channel KCNH2 (Homo sapiens, UniProt Q12809); experiment: concentration-dependent hERG rescue from blockers – cell-based, thallium flux, dose response (AID 2121); format: ADME
[17] = test system: Streptococcus sp. 'group A'; experiment: Streptococcus pyogenes SK(-)GAS viability under kanamycin – luminescence, BacTiterGlo, confirmation, counter-screen for streptokinase expression inhibitor project, dose response (AID 1900); format: functional, organism-based
cells [18] = format: functional, cell-based; remark: listed apart in the source
Bcl-2-related protein A1 [19] = molecular target: T1, Bcl-2-related protein A1; experiment: displacement of Bid BH3 peptide from Bfl-1 – biochemical, fluorescence polarization, FITC-Bid, mouse, primary screen (AID 432)

C/C(=N/NC(=O)C1CCCC1)c1ccc(NC(=O)C(F)(F)F)cc1
EC50 [1]: < 1 µM (active)
EC50 [2]: 3.55 µM (active)
EC50 [3]: > 112 µM (not active)

O=C1C(Cl)=C(N2CCN(C/C=C/c3ccccc3)CC2)C(=O)N1c1ccc(Cl)c(Cl)c1
IC50 (Bcl-2-related protein A1 [4]): 0.594 µM (active)
IC50 (Bcl-2-related protein A1 [5]): 0.73 µM (active)

Cc1oc(-c2ccc(Cl)cc2)cc1-c1nn2c(-c3ccoc3C)nnc2s1
IC50 [6]: 3.8 µM (not active)
IC50 (Estrogen receptor): 2.77 µM (active)
IC50 (Genome polyprotein): > 49.8 µM (not active)

CC(=O)c1noc(C)c1C(=O)Nc1nccs1
EC50 [7]: 6.46 µM (active)

COc1ccccc1N1CSC2=C(C#N)C(c3ccc(SC)cc3)CC(=O)N2C1 (stereo unspecified)
IC50 [8]: > 80 µM (inactive)
IC50 (Ephrin type-A receptor 4): 21.5 µM (active)
IC50 (Large T antigen): 28.4 µM (active)

N#Cc1c(NC(=O)C2C3C=CC(C3)C2C(=O)O)sc2c1CCCCC2 (stereo unspecified)
IC50 (Leucine aminopeptidase): 1.39 µM (active)
IC50 (Aspartyl aminopeptidase): > 73.5 µM (not active)
IC50 (Procathepsin L): > 59.6 µM (not active)

O=C(Cc1ccccc1)Nc1ccc2oc(-c3ccncc3)nc2c1
IC50 [9]: 6.54 µM (active)
IC50 [10]: 6.31 µM (active)

CCOC(=O)c1ccc(N2C(=O)CC(N3CCC(O)(c4ccc(Br)cc4)CC3)C2=O)cc1 (stereo unspecified)
IC50 (Galanin receptor type 2): > 42 µM (not active)

O=C1CCC(=O)N1CNc1ccc(Oc2ccccc2)cc1
IC50 [11]: > 100 µM (active)
AC50 [12]: 0.166 µM (active)

COc1ccccc1N1CCN(CCN(C(=O)c2ccc(I)cc2)c2ccccn2)CC1
AC50 (Cytochrome P450 2C19): 10 µM (inconclusive)

Cc1ccc(N=Nc2ccc(O)c3ncccc23)cc1
EC50 (cells [13]): > 350 µM (not active)
AC50 (INS1): 1.3 µM (active)
EC50 [14]: 32.7 µM (active)
EC50 [15]: 0.686 µM (active)
EC50 (Streptococcus): 1.56 µM (active)
EC50 [16]: 2.02 µM (active)
EC50 [17]: 0.165 µM (active)
EC50 (cells [18]): 9.69 µM (active)

COc1ccc(N2C(=O)C(Cl)=C(Nc3c(C)n(C)n(-c4ccccc4)c3=O)C2=O)cc1
IC50 (Bcl-2-related protein A1 [19]): > 100 µM (not active)
IC50 (Bcl-2-related protein A1 [5]): > 100 µM (not active)
